We go through 18 compounds from ChEMBL document CHEMBL3045741, “Antithyroid agents and QSAR studies: inhibition of lactoperoxidase-catalyzed iodination reaction by isochromene-1-thiones” (Med Chem Res, 2013).

In one assay the target is Lactoperoxidase (Bos taurus, UniProt P80025). The assay is described as follows: Inhibition of Bos taurus (bovine) milk lactoperoxidase-catalyzed iodination of L-tyrosine substrate by reverse phase HPLC analysis.
Assay [1] concerns the target Lactoperoxidase (Bos taurus) (UniProt P80025). The assay is described as follows: Non-competitive inhibition of Bos taurus (bovine) milk lactoperoxidase using varying concentration of L-tyrosine and fixed concentration of H2O2 as substrate by Lineweaver-burk plot analysis.
For assay [2] the target is unchanged. Put plainly: Non-competitive inhibition of Bos taurus (bovine) milk lactoperoxidase using fixed concentration of L-tyrosine and varying concentration of H2O2 as substrate by Lineweaver-burk plot analysis.
Assay [3] shares this target. Put plainly: Irreversible inhibition of Bos taurus (bovine) milk lactoperoxidase using L-tyrosine as substrate at 30 uM in presence of 0.08 to 0.8 mM H2O2 by reverse phase HPLC analysis.

The source made the active and inactive calls. No cut-off for these calls is given here. Some results are limits rather than exact numbers.

A word on the IC50: it is the concentration at which inhibition is half-maximal. High values mean weaker potency in that assay, low ones greater potency in that assay. On Lactoperoxidase, `COc1ccc(-c2cc3ccccc3c(=O)o2)cc1` gave a 50% inhibitory concentration (IC50) above 200 µM.
Still for that read-out and setting: then `O=c1oc(-c2ccc(Cl)cc2)cc2ccccc12`, with 105 µM.
Still for that read-out and setting: for `CC(C)(C)c1cc2ccccc2c(=S)o1` the value was 21.9 µM.
On to `S=c1oc(-c2cccc3ccccc23)cc2ccccc12`, for which the inhibition entry in assay [1], in assay [2] and in assay [3] was “Active” throughout. This compound showed an IC50 against Lactoperoxidase of 5.1 µM.
Compound `O=c1oc(-c2ccccc2)cc2ccccc12` yielded a concentration for half-maximal inhibition (IC50) on Lactoperoxidase above 200 µM.
For the compound `COc1ccc(-c2cc3ccccc3c(=S)o2)cc1`, in assay [3], the inhibition entry is “Active”. Also, on Lactoperoxidase, 8.4 µM corresponded to half-maximal inhibition (IC50).
In the case of `O=c1oc(-c2cccc3ccccc23)cc2ccccc12`, the half-maximal inhibitory concentration (IC50) on Lactoperoxidase was 34.6 µM.
The same measure, in the same setting: for `S=c1oc(C2CCCCC2)cc2ccccc12` the value was 5.5 µM.
The same measure, in the same setting: for `O=c1oc(-c2ccco2)cc2ccccc12` the value was above 200 µM; for `S=c1oc(-c2ccco2)cc2ccccc12`, 17.8 µM; for `Cc1ccc(-c2cc3ccccc3c(=O)o2)cc1`, 93.8 µM.
Still for that read-out and setting: for `S=c1oc(-c2ccccc2)cc2ccccc12` the value was 13.9 µM; for `S=c1oc(-c2cccs2)cc2ccccc12`, 14.3 µM.
Take `S=c1oc(-c2ccc(Cl)cc2)cc2ccccc12`: it took 26.4 µM to reach half-maximal inhibition on Lactoperoxidase (IC50).
Same read-out and setting: then `CCCCc1cc2ccccc2c(=S)o1`, with 17.4 µM; and `S=c1oc(-c2ccoc2)cc2ccccc12`, with 26.5 µM.
Regarding `Cc1ccc(-c2cc3ccccc3c(=S)o2)cc1`, the inhibition result in assay [1] and in assay [2] was “Active” in each case. Besides, the half-inhibitory concentration (IC50) against Lactoperoxidase is 6.2 µM.
`Cn1cc[nH]c1=S` [METHIMAZOLE]: half-maximal inhibition against Lactoperoxidase (IC50) required 8.4 µM.
